This note sets out measurements from US8530413B2, “Heterocyclically substituted methoxyphenyl derivatives with an oxo group, processes for preparation thereof and use thereof as medicaments” (Sanofi, priority 2010, dated 2013).

The target in this experiment is T1, GPCR GPR40 (Rattus norvegicus, UniProt Q8K3T4).
T1 construct: expressed in transfected cells; host or cells: HEK293
T1 sequence (Q8K3T4 whole entry): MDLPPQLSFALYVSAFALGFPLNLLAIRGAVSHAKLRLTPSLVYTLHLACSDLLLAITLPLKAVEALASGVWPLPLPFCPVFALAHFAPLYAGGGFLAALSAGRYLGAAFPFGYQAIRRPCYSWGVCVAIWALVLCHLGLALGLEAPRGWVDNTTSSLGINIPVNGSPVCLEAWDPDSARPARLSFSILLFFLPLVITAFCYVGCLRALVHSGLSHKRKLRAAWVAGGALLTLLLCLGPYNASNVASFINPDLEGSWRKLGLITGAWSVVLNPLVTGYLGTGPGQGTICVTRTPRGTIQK
Kind of experiment: In vitro FLIPR assay with recombinant cells which express the GPCR GPR40 (intracellular Ca2+). Type of experiment: cell-based. The following applies: recombinant HEK293 cells expressing GPR40; Fluo-4 Ca2+ change; 100% = 10 μM linoleic acid. As for the experimental part: In Vitro FLIPR Assay with Recombinant Cells which Express the GPCR GPR40
Function-testing assays were performed by means of the FLIPR technique (“Fluorescence Imaging Plate Reader”, Molecular Devices Corp.). For this purpose, agonist-induced changes were determined in the intracellular concentration of Ca^2+ in recombinant HEK293 cells which expressed the GPCR GPR40.
For the studies, cells were sown into 96-well microtiter plates (60 000 cells/well) and left to grow overnight. The medium was removed and the cells were incubated in buffer which contains the fluorescent dye Fluo-4. After this loading with dye, the cells were washed, test substance was added and changes were measured in the intracellular Ca^2+ concentration in the FLIPR instrument. Results were presented as the percentage change relative to the control (0%: no test substance added; 100%: 10 μM reference agonist linoleic acid added) and used to calculate dose/effect curves, and EC50 values were determined.
In general, EC50 refers to the concentration at which the effect is half-maximal. With `CC#CC(CC(=O)O)c1ccc(OCN2C(=O)C(C)(C)c3cc(C(F)(F)F)ccc32)cc1` (stereo not drawn) [Example 3, 3-[4-(3,3-Dimethyl-2-oxo-5-trifluoromethyl-2,3-dihydroindol-1-ylmethoxy)phenyl]hex-4-ynoic acid], the EC50 was 130 nM.
As for `CC#CC(CC(=O)O)c1ccc(OCN2C(=O)CC(C)(C)c3cc(Br)ccc32)cc1` (stereo not drawn) [Example 6, 3-[4-(6-Bromo-4,4-dimethyl-2-oxo-3,4-dihydro-2H-quinolin-1-ylmethoxy)phenyl]hex-4-ynoic acid], the EC50 came out at 440 nM.
As for `CC#CC(CC(=O)O)c1ccc(OCN2C(=O)C(C)(C)Oc3cccnc32)cc1` (stereo not drawn) [Example 9], the figure is 350 nM; as for `CC#CC(CC(=O)O)c1ccc(OCN2C(=O)C(CC)(CC)c3cc(Br)ccc32)cc1` (stereo not drawn) [Example 5, 3-[4-(5-Bromo-3,3-diethyl-2-oxo-2,3-dihydroindol-1-ylmethoxy)phenyl]hex-4-ynoic acid], 180 nM; as for `CC#CC(CC(=O)O)c1ccc(OCn2c(=O)sc3ccccc32)cc1` (stereo not drawn) [Example 7, 3-[4-(2-Oxobenzothiazol-3-ylmethoxy)phenyl]hex-4-ynoic acid], 50 nM.
As for `CC#CC(CC(=O)O)c1ccc(OCN2C(=O)C(C)(C)Oc3cc(Br)ccc32)cc1` (stereo not drawn) [Example 4, 3-[4-(7-Bromo-2,2-dimethyl-3-oxo-2,3-dihydrobenzo[1,4]oxazin-4-ylmethoxy)phenyl]hex-4-ynoic acid], the EC50 was 280 nM.
On to `CC#CC(CC(=O)O)c1ccc(OCN2C(=O)C(C)(C)Oc3ccccc32)cc1` (stereo not drawn) [Example 8, 3-[4-(2,2-Dimethyl-3-oxo-2,3-dihydrobenzo[1,4]oxazin-4-ylmethoxy)phenyl]hex-4-ynoic acid], for which the concentration giving a half-maximal response (EC50) came out at 60 nM.
With `CC#CC(CC(=O)O)c1ccc(OCN2C(=O)C(C)(C)c3ccc(Br)cc32)cc1` (stereo not drawn) [Example 2, 3-[4-(6-Bromo-3,3-dimethyl-2-oxo-2,3-dihydro-indol-1-ylmethoxy)phenyl]hex-4-ynoic acid] the figure was 4610 nM; with `CC#CC(CC(=O)O)c1ccc(OCN2C(=O)C(C)(C)c3cc(Br)ccc32)cc1` (stereo not drawn) [Example 1, 3-[4-(5-Bromo-3,3-dimethyl-2-oxo-2,3-dihydroindol-1-ylmethoxy)phenyl]hex-4-ynoic acid], 110 nM.
